From patent US8530446B2, “Oral composition containing difructose anhydride” (Fancl Corporation, priority 2004, dated 2013)

Test system: equol production in the intestinal tract
Test: Ability of DFA to increase equol production in the intestinal tract of rats (plasma equol by HPLC-UV)
Format: in vivo, Wistar-ST rats
Details: 20 days
From the text: The ability of DFA to increase equol production in the intestinal tract was examined.
Twenty-seven male Wistar-ST rats (six weeks old) were raised with a solid feed for three days, after which they were divided into three groups by weight so that each group consisted of nine rats. Each group was given a base feed containing 0.25% of a food product containing 40% isoflavone (basal diet group), a feed consisting of the base feed whose sucrose was substituted by 3% with DFAIII (DFAIII group), or a feed consisting of the base feed whose sucrose was substituted by 3% with fructo-oligosaccharide (FOS group), and raised for twenty days. On day 20, blood was taken from each rat through the caudal vein and the equol level in blood plasma was measured using the HPLC-UV method.
In the table, a and b indicate that values denoted by different symbols have a significant difference between them.

Structure (SMILES): OC[C@H]1O[C@@]2(CO[C@]3(CO)O[C@H](CO)[C@@H](O)[C@@H]3O2)[C@@H](O)[C@@H]1O [DFAIII, difructose anhydride]
- Equol (equol level in blood plasma) (male Wistar-ST rats, n=9/group, base feed with 0.25% of food product containing 40% isoflavone, sucrose substituted by 3% with test substance, caudal vein blood on day 20, HPLC-UV): 17.7 ± 1.81 µmol

Structure (SMILES): OC[C@H]1O[C@@]2(CO[C@]3(CO)O[C@H](CO)[C@@H](O)[C@@H]3O2)[C@@H](O)[C@@H]1O [DFA, difructose anhydride]
- Effect of ingestion on equol level in blood plasma (in words) (rats, 3% in isoflavone-containing feed): caused the equol level in blood plasma to rise
